Consider seven molecules from patent publication US20040086891A1, “Dehydrogenase oligomeric modulators” (priority 1998, published 2004).

SMILES strings stand for the structures. Entries after “also recorded” stand apart in the source; their conditions may differ.

In assay [1] the test system is partially differentiated PC12 cells or fibroblasts. Description: Apoptosis and GAPDH nuclear translocation after NO donor treatment. It is filed as cell-based. The text has this:
(§1) The subcellular localization of GAPDH in PC12 cells entering apoptosis using immunocytochemistry and LCSM has been studied.

Assay [2] concerns the target T1, GAPDH (Homo sapiens, UniProt P04406). Description: Size exclusion chromatography of the oligomeric state of GAPDH. The following applies: for oligomeric state of GAPDH bound to poly-U RNA: size exclusion chromatography, GAPDH largely tetrameric without compound; for oligomeric state of GAPDH in the presence of SDS: sodium dodecyl sulfate added, untreated protein becomes monomeric. It is filed as biochemical. How it is done: A dehydrogenase oligomeric modulator is identified using size exclusion chromatographic (SEC) techniques. A test compound is tested for its ability to prevent tetramer formation of GAPDH and compounds capable of preventing or inhibiting such formation are identified as DOMs. SEC is used to determine if potential compounds affect the oligomeric state of GAPDH (or any oligomeric protein) when contacted with GAPDH under conditions which promote oligomer formation. This method can be further refined and sped up (i.e., faster data collection) by using SEC-high performance liquid chromatographic (SEC-HPLC) methods. An example is set forth below.
A column was made using a disposable 1 cm diameter column (BIORAD). The chosen matrix for the column was Sephacryl H-300 (PHARMACIA). The column was poured by mixing the beads (SEPHACRYL) in a buffer and layering into the column until the bed was about 12 cm long. The buffer used was 50 mM TRIS—HCl, pH 8.0. The column was then washed with the same buffer for 10 column volumes.
A selection.of protein standards of known molecular weight was run through the column.
Once the column is calibrated, the molecular weight of the eluted fractions (in this case, GAPDH monomers, dimers and tetramers) may be determined.
Prior to moving the proteins to the column they are contacted with candidate compound and mixed at room temperature in, e.g., nanomolar concentrations under conditions known to those skilled in the art.
The mixture prepared above is then added to the column and eluted with 50 mM TRIS—HCl pH 8.0 buffer. 500 μl fractions of the eluent are collected. The optical density of the fractions is then determined, e.g., at 280 nm, and an elution profile prepared and analyzed to determine the extent of oligomerization.
GAPDH is a tetramer consisting of four identical monomers (FIG. 1). The tetramer exists in equilibrium between tetramers, dimers and monomers. This equilibrium strongly favors the tetrameric form. Upon tetramer formation, there is a channel present between the four monomers. […] As such, the ability of (−)-desmethyldeprenyl and CGP3466 to decrease GAPDH tetramer and increase GAPDH dimer in vitro identifies these compounds as oligomeric modulators of GAPDH.
On the technique in general: SEC sorts molecules by how far they enter the pores of the column.

The target in assay [3] is T1, GAPDH. Description: Photoaffinity binding and BODIPY-labelled CGP3466 protein binding study. As to conditions: photoaffinity binding techniques, BODIPY chromogen. The text has this:
It was also shown that there was an increase in GAPDH levels found in early apoptosis. Photoaffinity binding techniques and a BODIPY chromogen attached to dibenzo[bf]oxepin-10-ylmethyl-prop-2-ynyl-amine (CGP3466), were used to study the protein and subcellular binding of (−)-desmethyldeprenyl (DES) and CGP3466.

The test system of the next assay is PC12 cells. Briefly: Subcellular localization of GAPDH in PC12 cells entering apoptosis (immunocytochemistry, LCSM). It is filed as cell-based. The following applies: early apoptosis, 3-12 hours after serum and NGF withdrawal.
Text: as §1

For assay [4], the system named is GAPDH. Briefly: GAPDH protein levels in early apoptosis after trophic withdrawal. It is filed as cell-based. As to conditions: increase begins 1.5 to 2.0 hours after trophic withdrawal. From the text:
(§2) As well as the nuclear translocation, GAPDH levels increase rapidly in the early phases of apoptosis. […] At least three molecules associated with toxin-induced neuronal apoptosis—nitric oxide, superoxide radical and peroxynitrite—have the capacity to free GAPDH from AU-rich RNA (Beckman and Koppenol, 1996). Nitric oxide modifies the structure of GAPDH and appears to free it from AU-rich RNA (Brune and Lapetina, 1995; Brune and Lapetina, 1996; Itoga et al., 1997; McDonald and Moss, 1994). Oxygen free radicals enhance the binding of NAD^+ to GAPDH (Marin et al., 1995). If, in fact, GAPDH translocation to the nucleus does initiate or facilitate apoptosis, then ROS and NO may induce apoptosis through GAPDH.

In assay [5] the target is T1, GAPDH. Description: Antibody blocking experiment for drug binding in the GAPDH channel. As to conditions: protein first treated with antibody, then drug. How it is done: Antibody blocking experiments were conducted to confirm that CGP3466 bound GAPDH in the channel. In FIG. 2, GAPDH is shown in blue with the site for an antibody which was raised to a certain part of GAPDH is green.

A further assay relates to NG108-15 cells. As to conditions: cited from earlier work.
The target of assay [6] is T1, GAPDH. The following applies: cited from earlier work.
For another assay, the system named is fibroblasts. Description: GAPDH nuclear translocation in fibroblasts treated with NAD+. In kind it is cell-based.
Assay [7] addresses T1, GAPDH. Description: Release of GAPDH from AU-rich RNA and glycolytic activity. In kind it is biochemical.
Text: as §2

The next assay has as its system COS and Hek cells. Briefly: GAPDH-GFP fusion protein localization in living COS and Hek cells (LCSM). It is filed as cell-based. As to conditions: first two hours after exposure. The text has this: GAPDH cDNA was cloned from rat brain using oligonucleotides designed to the 5′- and 3′-ends of the coding region of rat GAPDH with PCR. The cDNA was used to produce a GAPDH-green fluorescent protein (GFP) construct by adding a 3′ oligo (Gly)s to the C-terminus of GAPDH followed by a BamHI site to allow subcloning, in frame, into pEGFP-1 (Clontech). The resulting construct contains GAPDH followed by (Gly)5 and enhanced GFP. The insert was subcloned into the Hindlil-Notl sites of pcDNA3. The GAPDH-GFP construct has been transiently transfected into COS1 cells and stably transfected into HEK 293 cells.
Apoptosis was induced in the living COS and Hek cells maintained in a physiological chamber on LCSM. […] These experiments established that GAPDH nuclear translocation occurs dynamically during the very early stages of apoptosis and indicate that GAPDLH participates in the initiation phase of apoptosis.

T1 sequence (P04406 whole entry, species assumed): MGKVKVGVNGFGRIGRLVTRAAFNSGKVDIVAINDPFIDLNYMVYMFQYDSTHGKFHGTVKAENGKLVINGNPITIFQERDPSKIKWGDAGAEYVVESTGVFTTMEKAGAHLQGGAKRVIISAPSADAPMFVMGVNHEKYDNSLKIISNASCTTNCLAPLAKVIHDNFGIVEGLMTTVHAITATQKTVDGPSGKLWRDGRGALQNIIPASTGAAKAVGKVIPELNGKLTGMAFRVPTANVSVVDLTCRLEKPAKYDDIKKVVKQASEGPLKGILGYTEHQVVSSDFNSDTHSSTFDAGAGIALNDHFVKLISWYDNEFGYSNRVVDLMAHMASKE

`CC(=O)N[C@@H](C(=O)O)C(C)(C)SN=O` (racemic) [SNAP]: the induction of apoptosis entry in assay [1] is listed as “induced apoptosis”.

Regarding `C#CCNC(C)Cc1ccccc1` (single isomer, unassigned; (-)) [(−)-desmethyldeprenyl], the “effect on the GAPDH tetramer” value at GAPDH [2] is given as “disrupt the tetramer forming dimers”. For the same molecule, on GAPDH [2], the “oligomeric state of GAPDH bound to poly-U RNA” value is on record as “converted to a dimer”. Also, the “oligomeric state of GAPDH in the presence of SDS” value (shortened to “oligomeric state … of SDS”) was “remains dimeric” at GAPDH [2] and “convert it to a dimer” at GAPDH [2] (listed as DES). Further, the “binding to GAPDH” value on GAPDH [3] is “bind to GAPDH”. In addition, the entries for the “nuclear translocation (relocation) of GAPDH” value with PC12 cells and with PC12 cells (listed as DES) were “prevent the nuclear relocation of GAPDH” and “blocked the nuclear translocation”, respectively. The “increase in GAPDH protein levels in early apoptosis” value (“increase in GAPDH protein levels” for short) in the assay on GAPDH [4] is reported as “prevent the increase”.

For `C#CCNCC1=Cc2ccccc2Oc2ccccc21` [CGP3466, dibenzo[bf]oxepin-10-ylmethyl-prop-2-ynyl-amine], on GAPDH [2], the “effect on the GAPDH tetramer” value is “disrupt the tetramer forming dimers”, the “oligomeric state of GAPDH bound to poly-U RNA” value is “converted to a dimer” and the “oligomeric state … of SDS” value is given as “convert it to a dimer”. Further, the “oligomeric state … of SDS” value at GAPDH [2] (listed as CGP 3466) is recorded as “remains dimeric”. On GAPDH [3], the “binding to GAPDH” value was “bind to GAPDH”; the proteins bound entry was “tubulin, actin, synapsin and GAPDH”. In addition, the “nuclear translocation (relocation) of GAPDH” value with PC12 cells was “prevent the nuclear relocation of GAPDH; also recorded: blocked the nuclear translocation”. Also, the “increase in GAPDH protein levels” value in the assay with GAPDH [4] is recorded as “prevent the increase”. The “drug binding to GAPDH after pre-treatment with antibody to the channel site” value at GAPDH [5] is listed as “no binding”.

On to `CC(C)[C@H]1CC[C@@]2(CO2)[C@H]2C(=O)OCC(C(=O)O)=C[C@H]12` [Koningic acid], for which the induction of apoptosis result in the assay with NG108-15 cells is recorded as “induces apoptosis”. Besides, the GAPDH glycolytic function entry at GAPDH [6] is “inhibits GAPDH glycolytic function”.

As for `CC(=O)N[C@@H](CS)C(=O)O` [NAC, N-acetyl cysteine], in the assay with GAPDH [4], the “increase in GAPDH protein levels” value was “prevent the increase”.

Regarding `NC(=O)c1ccc[n+]([C@@H]2O[C@H](COP(=O)([O-])OP(=O)(O)OC[C@H]3O[C@@H](n4cnc5c(N)ncnc54)[C@H](O)[C@@H]3O)[C@@H](O)[C@H]2O)c1` [NAD^+], the “nuclear translocation of GAPDH” value in the assay on fibroblasts is given as “induced the dense translocation of GAPDH to the nucleus”. Also, on GAPDH [7], the GAPDH glycolytic activity result is on record as “increases the enzyme's glycolytic activity” and the “release of GAPDH from AU-rich RNA” value is recorded as “releases GAPDH from AU-rich RNA”.

For `O=C([O-])c1c(Cl)c(Cl)c(Cl)c(Cl)c1-c1c2cc(I)c(=O)c(I)c-2oc2c(I)c([O-])c(I)cc12.[Na+].[Na+]` [Rose Bengal], the “localization of GAPDH-GFP fusion protein” value in the assay on COS and Hek cells was “concentrate in the nucleus of a proportion of the cells”.
